Key:
Test in all cases: Test C pre/postemergence
Type in all cases: in vivo
[1] = test system: Surinam grass (Brachiaria decumbens); conditions: Postemergence; for Surinam Grass plant response rating: scale 0 to 100 (0 no effect, 100 complete control); for Plant response rating, Surinam Grass: scale 0 to 100
Method in brief: (§1)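 Applications: preemergence onto seeded soil and postemergence onto 1- to 4-leaf seedlings, compound carried in non-phytotoxic solvent plus surfactant. Kept in greenhouse 12 to 14 days. Scored visually relative to untreated controls, 0 (no effect) to 100 (complete control).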

[2] = test system: bermudagrass (Cynodon dactylon); conditions: Postemergence; for Bermudagrass plant response rating: scale 0 to 100 (0 no effect, 100 complete control); for Plant response rating, Bermudagrass: scale 0 to 100
Method in brief: as §1

[3] = test system: crabgrass (Digitaria sanguinalis); conditions: Postemergence; for Crabgrass plant response rating: scale 0 to 100 (0 no effect, 100 complete control); for Plant response rating, Crabgrass: scale 0 to 100
Method in brief: as §1

[4] = test system: giant foxtail (Setaria faberii); conditions: Postemergence; for Foxtail, Giant plant response rating: scale 0 to 100 (0 no effect, 100 complete control); for Plant response rating, Foxtail, Giant: scale 0 to 100
Method in brief: as §1

[5] = test system: goosegrass (Eleusine indica); conditions: Postemergence; for Goosegrass plant response rating: scale 0 to 100 (0 no effect, 100 complete control); for Plant response rating, Goosegrass: scale 0 to 100
Method in brief: as §1

[6] = test system: johnsongrass (Sorghum halepense); conditions: Postemergence; for Johnsongrass plant response rating: scale 0 to 100 (0 no effect, 100 complete control)
Method in brief: as §1

kochia (Kochia scoparia) = conditions: Postemergence; for Kochia plant response rating: scale 0 to 100 (0 no effect, 100 complete control); for Plant response rating, Kochia: scale 0 to 100
Method in brief: as §1

[7] = test system: morningglory (Ipomoea coccinea); conditions: Postemergence; for Morningglory plant response rating: scale 0 to 100 (0 no effect, 100 complete control); for Plant response rating, Morningglory: scale 0 to 100
Method in brief: as §1

[8] = test system: pigweed (Amaranthus retroflexus); conditions: Postemergence; for Pigweed plant response rating: scale 0 to 100 (0 no effect, 100 complete control); for Plant response rating, Pigweed: scale 0 to 100
Method in brief: as §1

soybean (Glycine max) = conditions: Postemergence; for Soybean plant response rating: scale 0 to 100 (0 no effect, 100 complete control); for Plant response rating, Soybean: scale 0 to 100
Method in brief: as §1

[9] = test system: woolly cupgrass (Eriochloa villosa); conditions: Postemergence; for Cupgrass, Woolly plant response rating: scale 0 to 100 (0 no effect, 100 complete control); for Plant response rating, Cupgrass, Woolly: scale 0 to 100
Method in brief: as §1

SMILES: COC(=O)c1nc(-c2ccc(Cl)cc2)nc(N)c1Br [Compound 83]
- Plant response rating (scale of 0 to 100), Surinam Grass ([1]; 16 g ai/ha): 20
- Plant response rating (scale of 0 to 100), Surinam Grass ([1]; 31 g ai/ha): 30
- Plant response rating (scale of 0 to 100), Surinam Grass ([1]; 62 g ai/ha): 45
- Surinam Grass plant response rating ([1]; 125 g ai/ha): 65
- Plant response rating (scale of 0 to 100), Bermudagrass ([2]; 16 g ai/ha): 0
- Plant response rating (scale of 0 to 100), Bermudagrass ([2]; 31 g ai/ha): 5
- Bermudagrass plant response rating ([2]; 62 g ai/ha): 20
- Bermudagrass plant response rating ([2]; 125 g ai/ha): 55
- Plant response rating (scale of 0 to 100), Crabgrass ([3]; 16 g ai/ha): 25
- Plant response rating (scale of 0 to 100), Crabgrass ([3]; 31 g ai/ha): 45
- Plant response rating (scale of 0 to 100), Crabgrass ([3]; 62 g ai/ha): 65
- Crabgrass plant response rating ([3]; 125 g ai/ha): 75
- Plant response rating (scale of 0 to 100), Foxtail, Giant ([4]; 16 g ai/ha): 0
- Plant response rating (scale of 0 to 100), Foxtail, Giant ([4]; 31 g ai/ha): 0
- Plant response rating (scale of 0 to 100), Foxtail, Giant ([4]; 62 g ai/ha): 20
- Foxtail, Giant plant response rating ([4]; 125 g ai/ha): 40
- Plant response rating (scale of 0 to 100), Goosegrass ([5]; 16 g ai/ha): 10
- Plant response rating (scale of 0 to 100), Goosegrass ([5]; 31 g ai/ha): 10
- Plant response rating (scale of 0 to 100), Goosegrass ([5]; 62 g ai/ha): 30
- Goosegrass plant response rating ([5]; 125 g ai/ha): 45
- Plant response rating (scale of 0 to 100), Johnsongrass ([6]; 16 g ai/ha): 10
- Plant response rating (scale of 0 to 100), Johnsongrass ([6]; 31 g ai/ha): 55
- Plant response rating (scale of 0 to 100), Johnsongrass ([6]; 62 g ai/ha): 55
- Johnsongrass plant response rating ([6]; 125 g ai/ha): 70
- Plant response rating (scale of 0 to 100), Kochia (kochia (Kochia scoparia); 16 g ai/ha): 65
- Plant response rating (scale of 0 to 100), Kochia (kochia (Kochia scoparia); 31 g ai/ha): 75
- Plant response rating (scale of 0 to 100), Kochia (kochia (Kochia scoparia); 62 g ai/ha): 75
- Kochia plant response rating (kochia (Kochia scoparia); 125 g ai/ha): 90
- Plant response rating (scale of 0 to 100), Morningglory ([7]; 16 g ai/ha): 70
- Plant response rating (scale of 0 to 100), Morningglory ([7]; 31 g ai/ha): 85
- Plant response rating (scale of 0 to 100), Morningglory ([7]; 62 g ai/ha): 90
- Morningglory plant response rating ([7]; 125 g ai/ha): 90
- Plant response rating (scale of 0 to 100), Pigweed ([8]; 16 g ai/ha): 95
- Plant response rating (scale of 0 to 100), Pigweed ([8]; 31 g ai/ha): 95
- Plant response rating (scale of 0 to 100), Pigweed ([8]; 62 g ai/ha): 100
- Pigweed plant response rating ([8]; 125 g ai/ha): 100
- Plant response rating (scale of 0 to 100), Soybean (soybean (Glycine max); 16 g ai/ha): 85
- Plant response rating (scale of 0 to 100), Soybean (soybean (Glycine max); 31 g ai/ha): 90
- Plant response rating (scale of 0 to 100), Soybean (soybean (Glycine max); 62 g ai/ha): 100
- Soybean plant response rating (soybean (Glycine max); 125 g ai/ha): 100
- Plant response rating (scale of 0 to 100), Cupgrass, Woolly ([9]; 16 g ai/ha): 15
- Plant response rating (scale of 0 to 100), Cupgrass, Woolly ([9]; 31 g ai/ha): 15
- Plant response rating (scale of 0 to 100), Cupgrass, Woolly ([9]; 62 g ai/ha): 45
- Cupgrass, Woolly plant response rating ([9]; 125 g ai/ha): 60

SMILES: CCOC(=O)c1nc(-c2ccc(Cl)cc2)nc(N)c1Br [Compound 37]
- Surinam Grass plant response rating ([1]; 62 g ai/ha): 0
- Surinam Grass plant response rating ([1]; 125 g ai/ha): 0
- Plant response rating, Surinam Grass ([1]; 250 g ai/ha): 0
- Plant response rating, Surinam Grass ([1]; 500 g ai/ha): 0
- Bermudagrass plant response rating ([2]; 62 g ai/ha): 0
- Bermudagrass plant response rating ([2]; 125 g ai/ha): 0
- Plant response rating, Bermudagrass ([2]; 250 g ai/ha): 0
- Plant response rating, Bermudagrass ([2]; 500 g ai/ha): 20
- Crabgrass plant response rating ([3]; 62 g ai/ha): 0
- Crabgrass plant response rating ([3]; 125 g ai/ha): 15
- Plant response rating, Crabgrass ([3]; 250 g ai/ha): 40
- Plant response rating, Crabgrass ([3]; 500 g ai/ha): 60
- Foxtail, Giant plant response rating ([4]; 62 g ai/ha): 0
- Foxtail, Giant plant response rating ([4]; 125 g ai/ha): 0
- Plant response rating, Foxtail, Giant ([4]; 250 g ai/ha): 40
- Plant response rating, Foxtail, Giant ([4]; 500 g ai/ha): 45
- Goosegrass plant response rating ([5]; 62 g ai/ha): 0
- Goosegrass plant response rating ([5]; 125 g ai/ha): 0
- Plant response rating, Goosegrass ([5]; 250 g ai/ha): 0
- Plant response rating, Goosegrass ([5]; 500 g ai/ha): 0
- Johnsongrass plant response rating ([6]; 62 g ai/ha): 0
- Johnsongrass plant response rating ([6]; 125 g ai/ha): 20
- Plant response rating, Johnsongrass ([6]; 500 g ai/ha, scale 0 to 100): 55
- Kochia plant response rating (kochia (Kochia scoparia); 62 g ai/ha): 0
- Kochia plant response rating (kochia (Kochia scoparia); 125 g ai/ha): 90
- Plant response rating, Kochia (kochia (Kochia scoparia); 250 g ai/ha): 95
- Plant response rating, Kochia (kochia (Kochia scoparia); 500 g ai/ha): 95
- Morningglory plant response rating ([7]; 62 g ai/ha): 0
- Morningglory plant response rating ([7]; 125 g ai/ha): 65
- Plant response rating, Morningglory ([7]; 250 g ai/ha): 80
- Plant response rating, Morningglory ([7]; 500 g ai/ha): 95
- Pigweed plant response rating ([8]; 62 g ai/ha): 0
- Pigweed plant response rating ([8]; 125 g ai/ha): 95
- Plant response rating, Pigweed ([8]; 250 g ai/ha): 100
- Plant response rating, Pigweed ([8]; 500 g ai/ha): 100
- Soybean plant response rating (soybean (Glycine max); 62 g ai/ha): 20
- Soybean plant response rating (soybean (Glycine max); 125 g ai/ha): 85
- Plant response rating, Soybean (soybean (Glycine max); 250 g ai/ha): 95
- Plant response rating, Soybean (soybean (Glycine max); 500 g ai/ha): 100
- Cupgrass, Woolly plant response rating ([9]; 62 g ai/ha): 0
- Cupgrass, Woolly plant response rating ([9]; 125 g ai/ha): 0
- Plant response rating, Cupgrass, Woolly ([9]; 250 g ai/ha): 0
- Plant response rating, Cupgrass, Woolly ([9]; 500 g ai/ha): 45

Source: patent publication US8802597B2, “Herbicidal pyrimidines” (E I du Pont de Nemours and Company, priority 2003, dated 2014)
